Measured values from patent US11078515B2, “Methods for identifying targets for antimicrobial and antiproliferative compounds and compositions therefrom” (MIMETICS, LLC, priority 2015, dated 2021).
“Also recorded” adds a separate entry of the source.

Columns and labels:
Candida albicans = settings: rich medium; reference [14]; cited from earlier work
Cryptococcus neoformans [1] = assay: Plating assays (colony forming units) after exposure under slow growth conditions; assay type: cell-based
Source text: (§1) Here, we determined whether a trehalose-mimetic compound (Validamycin A) produced by a Streptomyces bacterium, could target the trehalose pathway in S. cerevisiae and in C. neoformans, and inhibit their cell division in sub-optimal growth conditions.

Cryptococcus neoformans [2] = assay: Cell division / growth by cell counting in rich versus slow growth (PUD) medium; assay type: cell-based; settings: 0, 50, 100 mM
Description: Left panel: C. neoformans cells were grown in rich medium (YEP+2% (w/v) Dextrose) with 0 mM (black), 50 mM (gray), and 100 mM (dotted) concentrations of Validamycin A. Cells were counted each hour for 6 hours and relative growth per mL was assessed. Right panel: C. neoformans cells were grown for 24 hours in PUD media and then dosed with Validamycin A. Cells were grown in slow growth medium (PUD) with 0 mM (black), 50 mM (gray), and 100 mM (dotted) concentrations of Validamycin A for 7 days and then counted at time intervals shown. Media was changed every 24 hours to fresh media containing the indicated concentration of drug.
as §1

OCC1=C[C@@H](N[C@H]2C[C@H](CO)[C@@H](O[C@H]3O[C@@H](CO)[C@H](O)[C@@H](O)[C@@H]3O)[C@H](O)[C@H]2O)[C@H](O)[C@@H](O)[C@@H]1O [Validamycin A]
efficacy as an antifungal agent against C. albicans (Candida albicans): not effective | colony forming units (Cryptococcus neoformans [1]; cells exposed under slow growth conditions (PUD medium)): substantially reduced | fungicidal activity (plating assays) (Cryptococcus neoformans [1]; slow growth conditions (PUD medium)): fungicidal | effect on division rates / growth (Cryptococcus neoformans [2]; optimal growth conditions, rich medium (YEPD+2% (w/v) Dextrose), counted each hour for 6 hours): no effect; also recorded: not rich medium | effect on division rates / growth (Cryptococcus neoformans [2]; slow growth conditions, PUD medium (PBS, 5 g/L Urea, 0.1% (w/v) dextrose; mimics cerebral spinal fluid), 7 days): severely inhibited; also recorded: inhibited in slow growth medium
